Assay results published in the supplement of paper PMC11061612.

Tests used:
Assay in all cases: Bliss excess, mean over the matrix (fraction); higher = more synergy
[1] = test system: EVSA-T (Breast Carcinoma)
Procedure, shortened: (§1)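 Cell lines grown in DMEM/F12 or RPMI with 10% FBS were plated in 1536-well plates and held 24 hours at 37°C, 5% CO2 before 72 hours of exposure to two-drug dose matrices, with DMSO typically at 0.2%. CellTiter-Glo 2.0 luminescence gave viability, which was converted to inhibition. Vehicle wells were set to 0 and blank wells to 1. Combination Emax is the second-highest inhibition in the matrix, and Bliss excess is the observed combination effect minus the expected EA + EB − EA·EB, where EA and EB are the single-agent effects.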

[2] = test system: GR-ST (B-Lymphoblastic Leukemia)
Procedure, shortened: as §1

[3] = test system: MOLT-16 (T-Lymphoblastic Leukemia)
Procedure, shortened: as §1

[4] = test system: PANC-08-13 (Pancreatic Carcinoma)
Procedure, shortened: as §1

[5] = test system: KARPAS-45 (T-Lymphoblastic Leukemia)
Procedure, shortened: as §1

[6] = test system: DiFi (Colorectal Carcinoma)
Procedure, shortened: as §1

[7] = test system: HL-60 (Acute Myeloid Leukemia)
Procedure, shortened: as §1

[8] = test system: MKN28 (Gastric Carcinoma)
Procedure, shortened: as §1

[9] = test system: NCI-H1792 (Lung Adenocarcinoma)
Procedure, shortened: as §1

[10] = test system: COLO-678 (Colorectal Carcinoma)
Procedure, shortened: as §1

[11] = test system: TOV-112D (Ovarian Carcinoma)
Procedure, shortened: as §1

[12] = test system: SW1417 (Colorectal Carcinoma)
Procedure, shortened: as §1

CHP-212 (Neuroblastoma) = test system: CHP-212 (Neuroblastoma)
Procedure, shortened: as §1

[13] = test system: KYSE-180 (Esophageal Squamous Cell Carcinoma)
Procedure, shortened: as §1

[14] = test system: K-562 (Chronic Myelogenous Leukemia)
Procedure, shortened: as §1

[15] = test system: P12-ICHIKAWA (T-Lymphoblastic Leukemia)
Procedure, shortened: as §1

[16] = test system: BFTC-905 (Bladder Carcinoma)
Procedure, shortened: as §1

[17] = test system: KM12 (Colorectal Carcinoma)
Procedure, shortened: as §1

TC-71 (Ewing's Sarcoma) = test system: TC-71 (Ewing's Sarcoma)
Procedure, shortened: as §1

WIL2-NS (Non-Cancerous) = test system: WIL2-NS (Non-Cancerous)
Procedure, shortened: as §1

Structure (SMILES)	Bliss excess [1]	Bliss excess [2]	Bliss excess [3]	Bliss excess [4]	Bliss excess [5]	Bliss excess [6]	Bliss excess [7]	Bliss excess [8]	Bliss excess [9]	Bliss excess [10]	Bliss excess [11]	Bliss excess [12]	Bliss excess (CHP-212 (Neuroblastoma))	Bliss excess [13]	Bliss excess [14]	Bliss excess [15]	Bliss excess [16]	Bliss excess [17]	Bliss excess (TC-71 (Ewing's Sarcoma))	Bliss excess (WIL2-NS (Non-Cancerous))
COc1nnc2ccc(N3CCC(c4ccc(OCCN5CCN(C)C(=O)[C@H]5C)cc4)CC3)nn12 [AZD5153] + C=CCn1c(=O)c2cnc(Nc3ccc(N4CCN(C)CC4)cc3)nc2n1-c1cccc(C(C)(C)O)n1 [AZD1775] (first compound max 1 µM, partner max 1 µM)	-0.0108	-0.0897	-0.0021	0.0108	-0.0088	-0.0761	-0.0519	-0.0617	-0.0428	-0.0287	-0.0434	-0.0254	-0.0294	-0.0323	-0.0718	0.0148	-0.0559	-0.0456	0.0354	-0.105
CN(CCO)CC[C@H](CSc1ccccc1)Nc1ccc(S(=O)(=O)NC(=O)c2ccc(N3CCC([C@@H](O)c4ccccc4-c4ccc(Cl)cc4)CC3)cc2)cc1S(=O)(=O)C(F)(F)F [AZD4320] + C=CCn1c(=O)c2cnc(Nc3ccc(N4CCN(C)CC4)cc3)nc2n1-c1cccc(C(C)(C)O)n1 [AZD1775] (first compound max 1 µM, partner max 1 µM)	0.0394	-0.0585	0.0417	-0.0019	-0.0041	0.007	0.0574	-0.0545	0.0128	-0.0459	-0.0106	-0.106	-0.0137	0.0258	0.0582	0.0899	-0.029	-0.0316	0.0339	0.0252
Cn1cnc2c(F)c(Nc3ccc(Br)cc3Cl)c(C(=O)NOCCO)cc21 [Selumetinib] + CCN(CCO)CCCOc1ccc2c(Nc3cc(CC(=O)Nc4cccc(F)c4)[nH]n3)ncnc2c1 [AZD2811] (first compound max 10 µM, 7x7, partner max 1 µM)	0.0097	0.0702	-0.0271	-0.0278	-0.0434	0.0371	0.0017	-0.0317	0.0143	-0.0223	-0.01	0.058	-0.0316	-0.0408	0.0352	0.0216	0.0253	-0.0409	0.0298	0.0264
CC1(C)CCC(CN2CCN(c3ccc(C(=O)NS(=O)(=O)c4ccc(NCC5CCOCC5)c([N+](=O)[O-])c4)c(Oc4cnc5[nH]ccc5c4)c3)CC2)=C(c2ccc(Cl)cc2)C1 [Venetoclax] + C[C@@H](Nc1cc(F)cc(F)c1)c1cc(C(=O)N(C)C)cc2c(=O)cc(N3CCOCC3)oc12 [AZD8186] (first compound max 1 µM, 7x7, partner max 3 µM)	0.0269	-0.0713	0.0388	-0.031	0.201	-0.021	0.0249	-0.0248	-0.035	-0.0975	-0.0205	-0.0747	-0.0118	-0.0031	0.038	-0.0097	-0.0516	-0.0327	-0.0381	-0.0168
